Where two headings read alike, the source gives them in different places.
Assays:
C. koseri = test: MIC of imipenem, ertapenem and meropenem; type: cell-based
E. coli = test: MIC of imipenem, ertapenem and meropenem; type: cell-based, Escherichia coli; settings: Escherichia coli
E. cloacae = test: MIC of imipenem, ertapenem and meropenem; type: cell-based, Enterobacter cloacae; settings: Enterobacter cloacae, read-out: MIC
C. freundii = test: MIC of imipenem, ertapenem and meropenem; type: cell-based, Citrobacter freundii
enterobacterial isolates = test: MIC of imipenem, ertapenem and meropenem (groups of isolates, other species); type: cell-based, Enterobacteriaceae

C[C@@H](O)[C@H]1C(=O)N2C(C(=O)O)=C(S[C@@H]3CN[C@H](C(=O)Nc4cccc(C(=O)O)c4)C3)[C@H](C)[C@H]12 [ETP, ertapenem]
MIC (C. koseri; C. koseri VER (OXA-48)): 2 µg/mL | MIC (C. koseri; C. koseri VER, OXA-48): 2 µg/mL | MIC (C. koseri; Citrobacter koseri, C. koseri ROU, OXA-48, read-out: MIC): 2 µg/mL | MIC (C. koseri; strain C. koseri VER, OXA-48): 2 µg/mL | MIC (E. coli; E. coli 1020, CTX-M-1 + TEM-1, non-carbapenemase producer): 0.023 µg/mL | MIC (E. coli; E. coli 1023, CTX-M-2 + TEM-1, non-carbapenemase producer, read-out: MIC): 0.016 µg/mL | MIC (E. coli; E. coli 1034, TEM-1 + SHV-38, non-carbapenemase producer, read-out: MIC): 0.006 µg/mL | MIC (E. coli; E. coli 1048, TEM-1 + SHV-2a, non-carbapenemase producer, read-out: MIC): 0.012 µg/mL | MIC (E. coli; E. coli 1082 (TEM-1)): 0.019 µg/mL | MIC (E. coli; E. coli 1082, TEM-1, non-carbapenemase producer): 0.019 µg/mL | MIC (E. coli; E. coli 1092, OXA-1, non-carbapenemase producer, read-out: MIC): 0.19 µg/mL | MIC (E. coli; E. coli 6252, (wild type), non-carbapenemase producer): 0.004 µg/mL | MIC (E. coli; E. coli 10121, CTX-M-2, non-carbapenemase producer, read-out: MIC): 0.016 µg/mL | MIC (E. coli; E. coli 1108013, IMP-1 + TEM-1, read-out: MIC): 4 µg/mL | MIC (E. coli; E. coli AUS (NDM-1 + CTX-M-15 + TEM-1), read-out: MIC): 32 µg/mL | MIC (E. coli; E. coli AUS, NDM-1 + TEM-1 + CTX-M-15, read-out: MIC): 32 µg/mL | MIC (E. coli; E. coli BER (OXA-48 + CTX-M-15), read-out: MIC): 1.5 µg/mL | MIC (E. coli; E. coli BER, OXA-48 + TEM-1 + CTX-M-15, read-out: MIC): 1.5 µg/mL | MIC (E. coli; E. coli BOK (OXA-48 + CTX-M-15), read-out: MIC): 0.38 µg/mL | MIC (E. coli; E. coli BOK, OXA-48 + CTX-M-15, read-out: MIC): 0.38 µg/mL | MIC (E. coli; E. coli BON (OXA-48 + CTX-M-24 + TEM-1), read-out: MIC): 0.5 µg/mL | MIC (E. coli; E. coli BON, OXA-48 + TEM-1 + CTX-M-24, read-out: MIC): 0.5 µg/mL | MIC (E. coli; E. coli BOU (OXA-48 + CTX-M-15), read-out: MIC): 0.75 µg/mL | MIC (E. coli; E. coli BOU, OXA-48 + CTX-M-15, read-out: MIC): 0.75 µg/mL | MIC (E. coli; E. coli COL (KPC-2), read-out: MIC): 4 µg/mL | MIC (E. coli; E. coli COL, KPC-2 + TEM-1 + CTX-M-9, read-out: MIC): 4 µg/mL | MIC (E. coli; E. coli DIH (VIM-19), read-out: MIC): 16 µg/mL | MIC (E. coli; E. coli DIH, VIM-19, read-out: MIC): 16 µg/mL | MIC (E. coli; E. coli DIN, KPC-2 + TEM-1 + OXA-1, read-out: MIC): > 32 µg/mL | MIC (E. coli; E. coli E14 (CTX-M-14), read-out: MIC): 0.12 µg/mL | MIC (E. coli; E. coli E14, CTX-M-14, non-carbapenemase producer, read-out: MIC): 0.012 µg/mL | MIC (E. coli; E. coli ECA, ACC-1, non-carbapenemase producer, read-out: MIC): 0.012 µg/mL | MIC (E. coli; E. coli EVB, VEB-1, non-carbapenemase producer, read-out: MIC): 0.012 µg/mL | MIC (E. coli; E. coli FOR, CTX-M-15, non-carbapenemase producer, read-out: MIC): 0.012 µg/mL | MIC (E. coli; E. coli GEN (NDM-1 + OXA-1 + CMY-30 + TEM-1), read-out: MIC): > 32 µg/mL | MIC (E. coli; E. coli GEN, NDM-1 + TEM-1 + CMY-30 + OXA-1, read-out: MIC): > 32 µg/mL | MIC (E. coli; E. coli GOG (OXA-48 + CTX-M-24), read-out: MIC): 1.5 µg/mL | MIC (E. coli; E. coli MET, Chromosome-encoded extended-spectrum cephalosporinase, non-carbapenemase producer, read-out: MIC): 0.012 µg/mL | MIC (E. coli; E. coli NAA (OXA-48 + CTX-M-24), read-out: MIC): 2 µg/mL | MIC (E. coli; E. coli OM3, OXA-48 + TEM-1 + CTX-M-15, read-out: MIC): 1 µg/mL | MIC (E. coli; E. coli OM20, NDM-1 + TEM-1 + CTX-M-15, read-out: MIC): > 32 µg/mL | MIC (E. coli; E. coli OM22, OXA-48 + TEM-1 + CTX-M-15, read-out: MIC): 1 µg/mL | MIC (E. coli; E. coli PSP (KPC-2), read-out: MIC): 0.5 µg/mL | MIC (E. coli; E. coli PSP, KPC-2 + TEM-1 + OXA-1, read-out: MIC): 0.5 µg/mL | MIC (E. coli; E. coli RIC (NDM-1 + OXA-1 + OXA-10 + CMY-16), read-out: MIC): 3 µg/mL | MIC (E. coli; E. coli RIC, NDM-1 + CMY-16 + OXA-1 + OXA-10, read-out: MIC): 3 µg/mL | MIC (E. coli; E. coli ROB (OXA-48), read-out: MIC): 0.75 µg/mL | MIC (E. coli; E. coli ROB, OXA-48, read-out: MIC): 0.75 µg/mL | MIC (E. coli; E. coli SYD, CMY-2, non-carbapenemase producer, read-out: MIC): 0.012 µg/mL | MIC (E. coli; E. coli TWA, IMP-8 + SHV-12, read-out: MIC): 8 µg/mL | MIC (E. coli; E. coli ZAN, OXA-48 + TEM-1 + CTX-M-14, read-out: MIC): 8 µg/mL | MIC (E. coli; strain E. coli 1008, TEM-1 + CTX-M-1, non-carbapenemase producer, read-out: MIC): 0.016 µg/mL | MIC (E. coli; strain E. coli 1034, TEM-1 + SHV-38, non-carbapenemase producer, read-out: MIC): 0.006 µg/mL | MIC (E. coli; strain E. coli 1048, TEM-1 + SHV-2a, non-carbapenemase producer, read-out: MIC): 0.012 µg/mL | MIC (E. coli; strain E. coli 10121, CTX-M-2, non-carbapenemase producer, read-out: MIC): 0.016 µg/mL | MIC (E. coli; strain E. coli AME, OXA-48 + CTX-M-24, read-out: MIC): 0.5 µg/mL | MIC (E. coli; strain E. coli BON, OXA-48 + TEM-1 + CTX-M-24, read-out: MIC): 0.5 µg/mL | MIC (E. cloacae; E. cloacae 501, OXA-48 + TEM-1 + CTX-M-15): 16 µg/mL | MIC (E. cloacae; E. cloacae 1012, TEM-1 + SHV-12, non-carbapenemase producer): 0.016 µg/mL | MIC (E. cloacae; E. cloacae 1027, TEM-1 + CTX-M-15, non-carbapenemase producer): 0.016 µg/mL | MIC (E. cloacae; E. cloacae 5434 (wild type)): 0.016 µg/mL | MIC (E. cloacae; E. cloacae 5434, (wild type), non-carbapenemase producer): 0.016 µg/mL | MIC (E. cloacae; E. cloacae 7725, (wild type), non-carbapenemase producer): 0.008 µg/mL | MIC (E. cloacae; E. cloacae 7746, (wild type), non-carbapenemase producer): 0.064 µg/mL | MIC (E. cloacae; E. cloacae 10111 (TEM-1 + CTX-M-15)): 0.75 µg/mL | MIC (E. cloacae; E. cloacae 1008029, VIM-1+ CTX-M-3): > 32 µg/mL | MIC (E. cloacae; E. cloacae 1008079, IMP-1): > 32 µg/mL | MIC (E. cloacae; E. cloacae 1008187, IMP-1 + CTX-M-15): > 32 µg/mL | MIC (E. cloacae; E. cloacae (KPC-2)): 6 µg/mL | MIC (E. cloacae; E. cloacae BEU, OXA-48 + TEM-1 + CTX-M-15 + SHV-12): 8 µg/mL | MIC (E. cloacae; E. cloacae CFVL, KPC-2 + TEM-3): 2 µg/mL | MIC (E. cloacae; E. cloacae CLO (CTX-M-15)): 0.12 µg/mL | MIC (E. cloacae; E. cloacae CLO, CTX-M-15, non-carbapenemase producer): 0.12 µg/mL | MIC (E. cloacae; E. cloacae CVB (VEB-1)): 0.12 µg/mL | MIC (E. cloacae; E. cloacae CVB, VEB-1, non-carbapenemase producer): 0.12 µg/mL | MIC (E. cloacae; E. cloacae HMG, KPC-2 + TEM-1): > 32 µg/mL | MIC (E. cloacae; E. cloacae HPTU (KPC-2 + TEM-1 + SHV-11)): 4 µg/mL | MIC (E. cloacae; E. cloacae HPTU, KPC-2 + TEM-1 + SHV-11): 4 µg/mL | MIC (E. cloacae; E. cloacae IR38 (NDM-1 + CTX-M-15)): 16 µg/mL | MIC (E. cloacae; E. cloacae IR38, NDM-1 + CTX-M-15): 16 µg/mL | MIC (E. cloacae; E. cloacae KAR, VIM-1+ SHV-70): 0.38 µg/mL | MIC (E. cloacae; E. cloacae TAW (IMP-8 + SHV-12)): 0.5 µg/mL | MIC (E. cloacae; E. cloacae TAW, IMP-8 + SHV-12): 0.5 µg/mL | MIC (E. cloacae; E. cloacae TUR (OXA-48 + SHV-5)): 0.5 µg/mL | MIC (E. cloacae; E. cloacae TUR, OXA-48 + SHV-5): 0.5 µg/mL | MIC (E. cloacae; E. cloacae TWA, IMP-8): 1 µg/mL | MIC (E. cloacae; strain E. cloacae 10111, TEM-1 + CTX-M-15, non-carbapenemase producer): 0.75 µg/mL | MIC (E. cloacae; strain E. cloacae CLO, CTX-M-15, non-carbapenemase producer): 0.12 µg/mL | MIC (E. cloacae; strain E. cloacae CVB, VEB-1, non-carbapenemase producer): 0.12 µg/mL | MIC (E. cloacae; strain E. cloacae HPTU, KPC-2 + TEM-1 + SHV-11): 4 µg/mL | MIC (E. cloacae; strain E. cloacae TAW, IMP-8 + SHV-12): 0.5 µg/mL | MIC (E. cloacae; strain E. cloacae TUR, OXA-48 + SHV-5): 0.5 µg/mL | MIC (C. freundii; C. freundii MAU, Overexpressed AmpC + TEM-3, non-carbapenemase producer): 8 µg/mL | MIC (C. freundii; Citrobacter freundii, C. freundii 1003, CTX-M-15 + TEM-1, non-carbapenemase producer, read-out: MIC): 0.016 µg/mL | MIC (C. freundii; Citrobacter freundii, C. freundii 7767 (wild type), read-out: MIC): 0.008 µg/mL | MIC (C. freundii; Citrobacter freundii, C. freundii 7767, (wild type), non-carbapenemase producer, read-out: MIC): 0.008 µg/mL | MIC (C. freundii; Citrobacter freundii, C. freundii 10107 (TEM-1 + SHV-12), read-out: MIC): 0.016 µg/mL | MIC (C. freundii; Citrobacter freundii, C. freundii 10107, TEM-1 + SHV-12, non-carbapenemase producer, read-out: MIC): 0.016 µg/mL | MIC (C. freundii; Citrobacter freundii, C. freundii 10135 (CTX-M-15), read-out: MIC): 0.016 µg/mL | MIC (C. freundii; Citrobacter freundii, C. freundii 10135, CTX-M-15, non-carbapenemase producer, read-out: MIC): 0.016 µg/mL | MIC (C. freundii; Citrobacter freundii, C. freundii STE (NDM-1 + OXA-1 + OXA-9 + OXA-10 + CTX-M-15 + TEM-1), read-out: MIC): > 32 µg/mL | MIC (C. freundii; Citrobacter freundii, C. freundii STE, NDM-1 + TEM-1 + CTX-M-15 + VIM-4 + OXA-1 + OXA-9 + OXA-10 + OXA-181, read-out: MIC): > 32 µg/mL | MIC (C. freundii; Citrobacter freundii, strain C. freundii 10107, TEM-1 + SHV-12, non-carbapenemase producer, read-out: MIC): 0.016 µg/mL | MIC (C. freundii; Citrobacter freundii, strain C. freundii 10135, CTX-M-15, non-carbapenemase producer, read-out: MIC): 0.016 µg/mL | MIC (C. freundii; strain C. freundii MAU, Overexpressed AmpC + TEM-3, non-carbapenemase producer): 8 µg/mL | MIC (enterobacterial isolates; Example 3, 19 isolates (1 Citrobacter freundii, 2 E. coli, 4 E. cloacae, 12 K. pneumoniae) with porin defect, read-out: MIC values of ertapenem of ertapenem non-susceptible isolates): > 0.25 µg/mL | MIC (enterobacterial isolates; S. marcescens 0911033, IMP-1): >32 µg/mL | MIC (enterobacterial isolates; S. marcescens 1008091, VIM-1+ CTX-M-15): >32 µg/mL | MIC (enterobacterial isolates; S. marcescens C7052, KPC-2 + TEM-1 + SHV-12): >32 µg/mL | MIC (enterobacterial isolates; Serratia marcescens, S. marcescens D6403, KPC-2 + TEM-1, read-out: MIC): > 32 µg/mL
